The test system of experiment [1] is velvetleaf (Abutilon theophrasti MEDIC.). The experiment can be described thus: Foliar treatment pot test, visual growth inhibition rate, velvetleaf (AT). The format is in vivo. From the text:
(§1) When the herbicidal activity in a case where two active ingredients are combined, is larger than the simple sum of the respective herbicidal activities of the two active ingredients (the expected activity), it is called a synergistic effect. The activity expected by the combination of two active ingredients can be calculated as follows (Colby S. R., “Weed”, vol. 15, p. 20-22, 1967). E=α+β−(α×β÷100) where
(§2) Upland field soil was put into a 1/1,000,000 hectare pot, and seeds of various plants (barnyardgrass (Echinochloa crus-qalli L.), crabgrass (Digitaria sanguinalis L.), giant foxtail (Setaria faberi Herrm.), velvetleaf (Abutilon theophrasti MEDIC.) and prickly sida (Sida spinosa L.)) were sown. When the respective plants reached predetermined leaf stage, herbicidal compositions in predetermined amounts were diluted with water in an amount corresponding to 300 L/ha and applied for foliar treatment by a small sprayer.
(§3) Further, in accordance with the above Colby's formula, the growth inhibition rate (calculated value) was calculated. In Tables, with respect to the compound Q, Compound Nos. in Table 1 are described, and with respect to other herbicidal compounds, common names are described. Further, in Tables, barnyardgrass is represented by “EC”, crabgrass by “DS”, giant foxtail by “SF”, velvetleaf by “AT”, and prickly sida by “SS”.

Experiment [2] concerns crabgrass (Digitaria sanguinalis L.). Nature of the experiment: Foliar treatment pot test, visual growth inhibition rate, crabgrass (DS). The format is in vivo.
Excerpt: as §1, §2, §3

Setting [3] is: Digitaria sanguinalis, foliar, 528 h, 4.0-5.0 leaf stage, 22 DAT, read-out: Growth inhibition rate (%) of DS Measured value.
[4] abbreviates: Digitaria sanguinalis, foliar, 552 h, 4.0-5.1 leaf stage, 23 DAT, read-out: Growth inhibition rate (%) of DS Measured value.
The mark [5] stands for this setting: Abutilon theophrasti, foliar, 552 h, 3.0-3.5 leaf stage, 23 DAT, read-out: Growth inhibition rate (%) of AT Measured value.

Read-outs that look alike come from different tables or passages of the source.

Turning to `CS(=O)(=O)c1ccc(C(=O)C2C(=O)CCCC2=O)c(Cl)c1` [Sulcotrione], the inhibition at 31 g/ha in experiment [1] (Abutilon theophrasti, foliar, 576 h, read-out: Growth inhibition rate (%) of AT Measured value, 3.2-4.1 leaf stage, 24 DAT, 31 g/ha) worked out at 60%. Besides, in experiment [2] (Digitaria sanguinalis, foliar, 480 h, read-out: Growth inhibition rate (%) of DS Measured value, 3.7-4.0 leaf stage, 20 DAT, 25 g/ha), the inhibition at 25 g/ha turned out to be 45%. Also, the inhibition at 50 g/ha in experiment [2] (Digitaria sanguinalis, foliar, 480 h, read-out: Growth inhibition rate (%) of DS Measured value, 3.7-4.0 leaf stage, 20 DAT, 50 g/ha) was found to be 60%; in experiment [2] (Digitaria sanguinalis, foliar, 480 h, read-out: Growth inhibition rate (%) of DS Measured value, 5.1-5.2 leaf stage, 20 DAT, 50 g/ha), 60%. Further, the inhibition at 100 g/ha in experiment [2] (Digitaria sanguinalis, foliar, 480 h, read-out: Growth inhibition rate (%) of DS Measured value, 3.7-4.0 leaf stage, 20 DAT, 100 g/ha) was determined as 80%; in experiment [2] (Digitaria sanguinalis, foliar, 480 h, read-out: Growth inhibition rate (%) of DS Measured value, 5.1-5.2 leaf stage, 20 DAT, 100 g/ha), 95%.

On to `COC(=O)c1c(Cl)nn(C)c1S(=O)(=O)NC(=O)Nc1nc(OC)cc(OC)n1` [Halosulfuron-methyl], for which the inhibition at 20 g/ha in experiment [2] (Digitaria sanguinalis, foliar, 336 h, read-out: Growth inhibition rate (%) of DS Measured value, 5.0-5.5 leaf stage, 14 DAT, 20 g/ha) is 0%.

As to `CC(C)N1C(=O)c2ccccc2NS1(=O)=O` [Bentazone-sodium, bentazone-sodium], the inhibition at 100 g/ha in experiment [1] (Abutilon theophrasti, foliar, 528 h, 4.1-4.5 leaf stage, 22 DAT, 100 g/ha, read-out: Growth inhibition rate (%) of AT Measured value) worked out at 0%. Further, the inhibition at 200 g/ha in experiment [1] (Abutilon theophrasti, foliar, 552 h, 3.0-3.5 leaf stage, 23 DAT, 200 g/ha, read-out: Growth inhibition rate (%) of AT Measured value) worked out at 30%; in experiment [2] (setting [3]), 0%; in experiment [2] (setting [4]) it was 0%.

For the compound `CC(C)N(C(=O)COc1nnc(C(F)(F)F)s1)c1ccc(F)cc1` [Flufenacet], the inhibition at 300 g/ha in experiment [1] (setting [5]) and in experiment [2] (setting [4]) was 0% each time. Besides, the inhibition at 200 g/ha in experiment [2] (Digitaria sanguinalis, foliar, 480 h, 5.0-5.2 leaf stage, 20 DAT, read-out: Growth inhibition rate (%) of DS Measured value) was determined as 0%.

Take `O=C(O)COc1ccc(Cl)cc1Cl` [2,4-D]: in experiment [1] (4.2-4.3 leaf stage, 20 DAT, 25 g/ha), the “Growth inhibition rate (%) of AT Measured value” was 45%.

As to `N.O=C(O)CNCP(=O)(O)O` [Glyphosate-ammonium, glyphosate-ammonium], the “Growth inhibition rate (%) of AT Measured value” is on record as 30% in experiment [1] (3.5-4.3 leaf stage, 14 DAT, 100 g/ha) and 15% in experiment [1] (3.5-4.3 leaf stage, 21 DAT, 200 g/ha). Besides, in experiment [2] (5.0-5.5 leaf stage, 21 DAT, 100 g/ha), the “Growth inhibition rate (%) of DS Measured value” came out at 10%.

For `CS(=O)(=O)c1ccc(C(=O)C2C(=O)CCCC2=O)c(Cl)c1` [sulcotrione], the inhibition at 25 g/ha in experiment [1] (Abutilon theophrasti, foliar, 480 h, read-out: Growth inhibition rate (%) of AT Measured value, 4.0-4.2 leaf stage, 20 DAT, 25 g/ha) came to 40%. Moreover, the inhibition at 50 g/ha in experiment [1] (Abutilon theophrasti, foliar, 480 h, read-out: Growth inhibition rate (%) of AT Measured value, 4.0-4.2 leaf stage, 20 DAT, 50 g/ha) was 60%. Besides, the inhibition at 100 g/ha in experiment [1] (Abutilon theophrasti, foliar, 480 h, read-out: Growth inhibition rate (%) of AT Measured value, 4.0-4.2 leaf stage, 20 DAT, 100 g/ha) was 95%.

`O=C(O)CNCP(=O)([O-])O.[K+]` [Glyphosate-potassium]: the “Growth inhibition rate (%) of DS Measured value” in experiment [2] (4.0-4.2 leaf stage, 20 DAT, 62.5 g/ha) was 0%; in experiment [2] (4.0-4.2 leaf stage, 20 DAT, 125 g/ha), 5%; in experiment [2] (4.0-4.2 leaf stage, 20 DAT, 250 g/ha), 20%.

For `CCOC(=O)OC(C)Oc1c(C(=O)c2ccc(S(C)(=O)=O)c(OCCOC)c2C)cnn1C` (centres unmarked) [NO. 2], the “Growth inhibition rate (%) of AT Measured value” in experiment [1] (4.0-4.3 leaf stage, 22 DAT, 3.75 g/ha) was found to be 0%.

In the case of `CCC(CC)Nc1c([N+](=O)[O-])cc(C)c(C)c1[N+](=O)[O-]` [Pendimethalin, pendimethalin], the inhibition at 100 g/ha in experiment [1] (Abutilon theophrasti, foliar, 312 h, 3.3-4.2 leaf stage, 13 DAT, 100 g/ha, read-out: Growth inhibition rate (%) of AT Measured value) is 25%. Also, the inhibition at 125 g/ha worked out at 20% in experiment [1] (Abutilon theophrasti, foliar, 480 h, 4.2-4.3 leaf stage, 20 DAT, 125 g/ha, read-out: Growth inhibition rate (%) of AT Measured value) and 0% in experiment [2] (Digitaria sanguinalis, foliar, 480 h, 4.5-5.2 leaf stage, 20 DAT, 125 g/ha, read-out: Growth inhibition rate (%) of DS Measured value). Moreover, the inhibition at 250 g/ha in experiment [1] (Abutilon theophrasti, foliar, 480 h, 4.2-4.3 leaf stage, 20 DAT, 250 g/ha, read-out: Growth inhibition rate (%) of AT Measured value) stood at 38%; in experiment [2] (Digitaria sanguinalis, foliar, 480 h, 4.5-5.2 leaf stage, 20 DAT, 250 g/ha, read-out: Growth inhibition rate (%) of DS Measured value), 0%. Moreover, the inhibition at 62.5 g/ha in experiment [2] (Digitaria sanguinalis, foliar, 480 h, 4.5-5.2 leaf stage, 20 DAT, 62.5 g/ha, read-out: Growth inhibition rate (%) of DS Measured value) turned out to be 0%.

Consider `O=C(O)c1nc(Cl)ccc1Cl` [Clopyralid, clopyralid], for which the inhibition at 300 g/ha turned out to be 40% in experiment [1] (Abutilon theophrasti, foliar, 528 h, 4.1-4.5 leaf stage, 22 DAT, read-out: Growth inhibition rate (%) of AT Measured value); 35% in experiment [1] (setting [5]); 0% in experiment [2] (setting [3]); 0% in experiment [2] (setting [4]).

For the compound `Cn1nc(C(F)(F)F)c(CS(=O)(=O)C2=NOC(C)(C)C2)c1OC(F)F` [Pyroxasulfone, pyroxasulfone], the inhibition at 50 g/ha in experiment [1] (Abutilon theophrasti, foliar, 312 h, 3.3-4.2 leaf stage, 13 DAT, 50 g/ha, read-out: Growth inhibition rate (%) of AT Measured value) is 5%; in experiment [1] (Abutilon theophrasti, foliar, 336 h, 3.0-4.0 leaf stage, 14 DAT, 50 g/ha, read-out: Growth inhibition rate (%) of AT Measured value) it was 0%; in experiment [1] (Abutilon theophrasti, foliar, 504 h, 3.0-3.5 leaf stage, 21 DAT, 50 g/ha, read-out: Growth inhibition rate (%) of AT Measured value), 0%; in experiment [2] (Digitaria sanguinalis, foliar, 312 h, 4.4-5.0 leaf stage, 13 DAT, 50 g/ha, read-out: Growth inhibition rate (%) of DS Measured value), 0%; in experiment [2] (Digitaria sanguinalis, foliar, 504 h, 4.0-5.0 leaf stage, 21 DAT, 50 g/ha, read-out: Growth inhibition rate (%) of DS Measured value) it was 10%. Moreover, the inhibition at 100 g/ha in experiment [2] (Digitaria sanguinalis, foliar, 336 h, 4.0-5.0 leaf stage, 14 DAT, 100 g/ha, read-out: Growth inhibition rate (%) of DS Measured value) stood at 5%.

As for `CCOC(=O)C(Cl)Cc1cc(-n2nc(C)n(C(F)F)c2=O)c(F)cc1Cl` (centres unmarked) [Carfentrazone-ethyl, carfentrazone-ethyl], the inhibition at 15 g/ha in experiment [1] (Abutilon theophrasti, foliar, 336 h, read-out: Growth inhibition rate (%) of AT Measured value, 3.0-4.0 leaf stage, 14 DAT, 15 g/ha) amounted to 98%; in experiment [2] (Digitaria sanguinalis, foliar, 336 h, read-out: Growth inhibition rate (%) of DS Measured value, 4.0-5.0 leaf stage, 14 DAT, 15 g/ha) it was 5%; in experiment [2] (Digitaria sanguinalis, foliar, 384 h, read-out: Growth inhibition rate (%) of DS Measured value, 4.0-5.0 leaf stage, 16 DAT, 15 g/ha) it was 0%. In experiment [1] (Abutilon theophrasti, foliar, 504 h, read-out: Growth inhibition rate (%) of AT Measured value, 3.0-3.5 leaf stage, 21 DAT, 7 g/ha), the inhibition at 7 g/ha is 99%.

Regarding `CCc1cc(C)cc(CC)c1-c1c(OC(=O)C(C)(C)C)n2n(c1=O)CCOCC2` [Pinoxaden], the inhibition at 25 g/ha in experiment [1] (Abutilon theophrasti, foliar, 504 h, AT 4.0-4.3 leaf stage, 21 DAT, active ingredient 25 g/ha, read-out: Growth inhibition rate (%) of AT Measured value) came out at 0%; in experiment [2] (Digitaria sanguinalis, foliar, 504 h, 4.0-5.1 leaf stage, 21 DAT, 25 g/ha, read-out: Growth inhibition rate (%) of DS Measured value), 70%. For the same compound, the inhibition at 50 g/ha in experiment [1] (Abutilon theophrasti, foliar, 504 h, AT 4.0-4.3 leaf stage, 21 DAT, active ingredient 50 g/ha, read-out: Growth inhibition rate (%) of AT Measured value) came to 0%; in experiment [2] (Digitaria sanguinalis, foliar, 504 h, 4.0-5.1 leaf stage, 21 DAT, 50 g/ha, read-out: Growth inhibition rate (%) of DS Measured value) it was 90%. Further, the inhibition at 100 g/ha in experiment [1] (Abutilon theophrasti, foliar, 504 h, AT 4.0-4.3 leaf stage, 21 DAT, active ingredient 100 g/ha, read-out: Growth inhibition rate (%) of AT Measured value) was 0%; in experiment [2] (Digitaria sanguinalis, foliar, 504 h, 4.0-5.1 leaf stage, 21 DAT, 100 g/ha, read-out: Growth inhibition rate (%) of DS Measured value), 70%.

On to `CCc1cccc(CC)c1N(COC)C(=O)CCl` [Alachlor, alachlor], for which the inhibition at 300 g/ha stood at 0% in experiment [1] (Abutilon theophrasti, foliar, 504 h, 3.8-4.4 leaf stage, 21 DAT, read-out: Growth inhibition rate (%) of AT Measured value) and 10% in experiment [2] (Digitaria sanguinalis, foliar, 504 h, 5.0-5.5 leaf stage, 21 DAT, read-out: Growth inhibition rate (%) of DS Measured value).
